Reference: patent publication US8962057B2, “Methods for improving taste and oral care compositions with improved taste” (The Procter & Gamble Company, priority 2009, dated 2015)
Where two headings read alike, the source gives them in different places.

What was measured:
TRPV1 [1] = target: T1, TRPV1 (Homo sapiens, UniProt Q8NER1); test: TRPV1 enhancement, enhancer added after TRPV1 activator capsaicin; assay type: cell-based
T1 construct: expressed in transfected cells
Procedure: In order to determine whether TRPV1 is activated, the intracellular calcium ion (Ca^+2) levels in TRPV1 receptors is measured. […] (human embryonic kidney) cells stably transfected with human TRPV1 are grown in 15 ml growth medium [high glucose DMEM (Dulbecco's Modification of Eagle's Medium) supplemented with 10% FBS (fetal bovine serum), 100 μg/ml Penicillin/streptomycin, 100 μg/ml G418] in a 75 Cm^2 flask for 3 days at 33° C. in a mammalian cell culture incubator set at 5% CO2. Cells are detached with addition of 10 ml of PBS (phosphate buffered saline) by hand shaking gently. Cells are transferred to a 50 ml tube and centrifuged at 850 rpm for 3 minutes to remove PBS. After centrifugation, a pellet of cells is formed in the bottom of the tube separating them from the supernatant solution. […] Fluo-4 is a fluorescent dye used for quantifying cellular Ca^2+ concentrations in the 100 nM to 1 microM range. At the end of the 30 minutes, 45 ml of assay buffer [1×HBSS (Hank's Balanced Salt Solution), 20 mM HEPES (4-(2-Hydroxyethyl)-1-piperazineethanesulfonic acid)] is added to wash cells and the resulting combination is then centrifuged at 850 rpm for 3 minutes to remove excess buffer and Fluo-4 AM calcium indicator.
[…] […] For determining the direct effect of test compounds on TRPV1, fluorescence is measured immediately after addition of each compound.

[2] = Burning sensation on the standard Scoville hotness scale
TRPV1 [3] = target: T1, TRPV1; test: TRPV1 enhancement, TRPV1 activator VBE and enhancer added together; assay type: cell-based; settings: VBE 3.5 microMolar
Procedure: In order to determine whether TRPV1 is activated, the intracellular calcium ion (Ca^+2) levels in TRPV1 receptors is measured. […] (human embryonic kidney) cells stably transfected with human TRPV1 are grown in 15 ml growth medium [high glucose DMEM (Dulbecco's Modification of Eagle's Medium) supplemented with 10% FBS (fetal bovine serum), 100 μg/ml Penicillin/streptomycin, 100 μg/ml G418] in a 75 Cm^2 flask for 3 days at 33° C. in a mammalian cell culture incubator set at 5% CO2. Cells are detached with addition of 10 ml of PBS (phosphate buffered saline) by hand shaking gently. Cells are transferred to a 50 ml tube and centrifuged at 850 rpm for 3 minutes to remove PBS. After centrifugation, a pellet of cells is formed in the bottom of the tube separating them from the supernatant solution. The supernatant is discarded and the cell pellet is suspended in 1 ml of fresh growth medium to which 5 μl (12.5 μg) of Fluo-4 AM (Molecular Probes, Inc.) calcium indicator is added and incubated for 30 min with gentle shaking. Fluo-4 is a fluorescent dye used for quantifying cellular Ca^2+ concentrations in the 100 nM to 1 microM range. At the end of the 30 minutes, 45 ml of assay buffer [1×HBSS (Hank's Balanced Salt Solution), 20 mM HEPES (4-(2-Hydroxyethyl)-1-piperazineethanesulfonic acid)] is added to wash cells and the resulting combination is then centrifuged at 850 rpm for 3 minutes to remove excess buffer and Fluo-4 AM calcium indicator.
The pellet cells are re-suspended in 10 ml assay buffer and 90 μl aliquots (˜50,000 cells) per well delivered to a 96-well assay plate containing 10 μl of test compounds (1 mM in assay buffer, final concentration 100 μM) or buffer control and incubated at room temperature for 30 minutes. After 30 minutes, the plate is placed into a fluorometric imaging plate reader (FLIPR^384 from Molecular Devices) and basal fluorescence recorded (excitation wave length 488 nm and emission wave length 510 nm). The FLIPR assay is an accepted method for detecting changes in intracellular calcium concentration. Then 20 μl of the molecule being tested as a TRPV1 activator is added and fluorescence recorded. For determining the direct effect of test compounds on TRPV1, fluorescence is measured immediately after addition of each compound. Additional discussion of the FLIPR method can be found in Smart et al., Characterization using FLIPR of human vanilloid VR1 receptor pharmacology, European Journal of Pharmacology 417, 51-58 (2001) and Liu et al., Development and validation of a platelet calcium flux assay using a fluorescent imaging plate reader, Analytical Biochemistry 357, 216-224 (2006).
In a separate test, the TRPV1 activator (VBE) and the enhancer are added together. […] See the chart below.

TRPV1 [4] = target: T1, TRPV1; test: FLIPR calcium flux assay for TRPV1 activation in transfected HEK cells; assay type: cell-based
Procedure: The term “TRPV1 activator” as used herein refers to any component which at a concentration of 1 mM gives a calcium flux count of at least 1000 counts above the background level of calcium present in the cell according to the FLIPR method as discussed herein. The term “count” is defined as the change in fluorescence of the transfected cell lines due to the influx of calcium across the cell membrane, which reacts with the calcium sensitive dye present within the cells.
In order to determine whether TRPV1 is activated, the intracellular calcium ion (Ca^+2) levels in TRPV1 receptors is measured. […] (human embryonic kidney) cells stably transfected with human TRPV1 are grown in 15 ml growth medium [high glucose DMEM (Dulbecco's Modification of Eagle's Medium) supplemented with 10% FBS (fetal bovine serum), 100 μg/ml Penicillin/streptomycin, 100 μg/ml G418] in a 75 Cm^2 flask for 3 days at 33° C. in a mammalian cell culture incubator set at 5% CO2. Cells are detached with addition of 10 ml of PBS (phosphate buffered saline) by hand shaking gently. Cells are transferred to a 50 ml tube and centrifuged at 850 rpm for 3 minutes to remove PBS. […] Fluo-4 is a fluorescent dye used for quantifying cellular Ca^2+ concentrations in the 100 nM to 1 microM range. […]
The pellet cells are re-suspended in 10 ml assay buffer and 90 μl aliquots (˜50,000 cells) per well delivered to a 96-well assay plate containing 10 μl of test compounds (1 mM in assay buffer, final concentration 100 μM) or buffer control and incubated at room temperature for 30 minutes. After 30 minutes, the plate is placed into a fluorometric imaging plate reader (FLIPR^384 from Molecular Devices) and basal fluorescence recorded (excitation wave length 488 nm and emission wave length 510 nm). […] Then 20 μl of the molecule being tested as a TRPV1 activator is added and fluorescence recorded. For determining the direct effect of test compounds on TRPV1, fluorescence is measured immediately after addition of each compound. […]

[5] = Consumer Test I: panelists brush with dentifrice and rate bothersome and bad aftertaste; assay type: in vivo, human; settings: in dentifrice
Procedure: In order to show the effect of the addition of a TRPV1 activator and/or Vanitrope on the perception of taste in an oral care composition, the following compositions are made and given to consumers to sample.
The base of the control dentifrice (i.e. everything but the flavor) is made via vacuum mixing. The flavor is added in a second step my speed mixing to complete the control. The additional compositions are then made by speed mixing into the control base the TRPV1 activator and/or vanitrope plus flavor at the stated levels. The samples are then placed in tubes and delivered to the testing facility.
At the testing facility, panelists are provided with a generic brush with 1.0 g of toothpaste. Each panelist has an individual sink, mirror, disposable cup and paper towels. They are asked to brush as they normally would at home. Before and after brushing the panelist will answer a series of questions relating to their experience with the toothpaste. The panelists are asked to comment on their experience right after brushing and then at each hour interval for three hours. The comments from the consumers are translated into numerical values for comparison. The results for the above compositions as it related to bothersome and bad aftertaste are shown below.
Also included in the above testing are combinations of TRPV1 activators and/or vanitrope. The formulations for these tests are below and the control is the same as that listed above.

[6] = both bothersome and bad aftertaste, each of hours 1-3

T1 sequence (Q8NER1 whole entry): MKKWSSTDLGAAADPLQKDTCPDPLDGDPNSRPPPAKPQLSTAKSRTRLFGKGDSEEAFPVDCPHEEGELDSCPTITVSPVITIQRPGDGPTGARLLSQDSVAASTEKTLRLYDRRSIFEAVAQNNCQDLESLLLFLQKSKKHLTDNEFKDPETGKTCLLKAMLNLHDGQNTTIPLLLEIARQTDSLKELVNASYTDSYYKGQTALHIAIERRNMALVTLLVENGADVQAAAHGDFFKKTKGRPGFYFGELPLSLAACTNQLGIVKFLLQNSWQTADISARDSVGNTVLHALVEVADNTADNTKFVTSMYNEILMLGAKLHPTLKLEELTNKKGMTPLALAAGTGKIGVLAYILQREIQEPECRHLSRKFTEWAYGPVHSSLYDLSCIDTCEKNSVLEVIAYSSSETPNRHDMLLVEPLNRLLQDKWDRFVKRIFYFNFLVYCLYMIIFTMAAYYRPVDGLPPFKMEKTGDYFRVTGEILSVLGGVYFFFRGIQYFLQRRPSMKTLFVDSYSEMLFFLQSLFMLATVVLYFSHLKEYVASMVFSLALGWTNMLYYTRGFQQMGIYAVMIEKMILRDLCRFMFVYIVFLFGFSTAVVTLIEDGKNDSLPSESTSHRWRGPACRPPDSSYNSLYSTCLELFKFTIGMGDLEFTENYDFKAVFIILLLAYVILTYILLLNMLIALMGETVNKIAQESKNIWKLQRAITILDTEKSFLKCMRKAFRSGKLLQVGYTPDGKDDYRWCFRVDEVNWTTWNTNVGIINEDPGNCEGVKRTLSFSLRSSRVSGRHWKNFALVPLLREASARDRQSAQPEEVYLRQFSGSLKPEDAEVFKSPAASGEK

Compound: CC(C)=CCCC(C)C=O (centres unmarked) [2,6-Dimethyl-5-Heptenal]
- % Enhancement (TRPV1 [1]): 17.5%

Compound: CCCCCCC(C)=O [2-Octanone]
- % Enhancement (TRPV1 [1]): 19.87%

Compound: CCCCC[C@H](O)CC(=O)CCc1ccc(O)c(OC)c1 [6-Gingerol]
- 'Hotness' (as log Scoville Units) ([2]; burning sensation): 4.9 log Scoville Units

Compound: CCCCC/C=C/C(=O)CCc1ccc(O)c(OC)c1 [6-Shoagol]
- 'Hotness' (as log Scoville Units) ([2]; burning sensation): 5.1 log Scoville Units

Compound: C=CCS[S+]([O-])CC=C (centres unmarked) [Allicin]
- 'Hotness' (as log Scoville Units) ([2]; burning sensation): 4.0 log Scoville Units

Compound: CC(=O)OC(C)(C)Cc1ccccc1 [Alpha, Alpha Dimethylphenethyl Acetate]
- Percent Enhancement when combined with 3.5 microMolar VBE (TRPV1 [3]; enhancer level 50 microMolar): 300%
- Percent Enhancement when combined with 3.5 microMolar VBE (TRPV1 [3]; enhancer level 100 microMolar): 310%
- Percent Enhancement when combined with 3.5 microMolar VBE (TRPV1 [3]; enhancer level 200 microMolar): 410%
- Percent Enhancement when combined with 3.5 microMolar VBE (TRPV1 [3]; enhancer level 1000 microMolar): 420%
- % Enhancement (TRPV1 [1]): 14.64%

Compound: C/C=C\C(=O)C1C(C)=CCCC1(C)C (stereo not drawn) [Alpha-Damascone]
- % Enhancement (TRPV1 [1]): 28.1%

Compound: CC(=O)/C=C/C1C(C)=CCCC1(C)C (stereo not drawn) [Alpha-Ionone]
- % Enhancement (TRPV1 [1]): 18.84%

Compound: COc1cc(CNC(=O)CCCC/C=C/C(C)C)ccc1O [Capsaicin, reference compound]
- 'Hotness' (as log Scoville Units) ([2]; burning sensation): 7.2 log Scoville Units
- activation level (calcium flux) (TRPV1 [4]; concentration of 300 nM): about 14127.16 calcium ions

Compound: O=Cc1ccco1 [Furfural]
- % Enhancement (TRPV1 [1]): 19.29%

Compound: CCCC(=O)OC/C=C(\C)CCC=C(C)C [Geranyl Butyrate]
- % Enhancement (TRPV1 [1]): 23.46%

Compound: CCCCCCCO [Heptyl Alcohol]
- % Enhancement (TRPV1 [1]): 10.16%

Compound: COc1cc(CNC(=O)CCCCC/C=C/C(C)C)ccc1O [HomoCapsaicin]
- 'Hotness' (as log Scoville Units) [2]: 6.9 log Scoville Units

Compound: COc1cc(CNC(=O)CCCCCCCC(C)C)ccc1O [HomodihydroCapsaicin]
- 'Hotness' (as log Scoville Units) [2]: 6.9 log Scoville Units

Compound: C=C(OCC)C1C(C)(C)CC(=O)CC1(C)C [Kephalis]
- % Enhancement (TRPV1 [1]): 13.74%

Compound: COc1cc(CNC(=O)CCCCCC(C)C)ccc1O [NorhydroCapsaicin]
- 'Hotness' (as log Scoville Units) [2]: 7.0 log Scoville Units

Compound: COC(Cc1ccccc1)OC [Phenylacetaldehyde Dimethyl Acetal]
- % Enhancement (TRPV1 [1]): 14.07%

Compound: O=P([O-])([O-])OP(=O)([O-])[O-].[Na+].[Na+].[Na+].[Na+] [Tetrasodium Pyrophosphate]
- % Enhancement (TRPV1 [1]): 15.62%

Compound: CCC/C=C/COC(C)=O [Trans-2-Hexenyl Acetate]
- % Enhancement (TRPV1 [1]): 10.62%

Compound: CCCCOCc1ccc(O)c(OC)c1 [Vanillyl Butyl Ether]
- 'Hotness' (as log Scoville Units) ([2]; burning sensation): 5.7 log Scoville Units
- activation level (calcium flux) (TRPV1 [4]; concentration of 1 mM): approximately 14942.84 calcium ions
- taste versus control [5, 6]: improved taste over the control

Compound: COc1cc(CCC(C)=O)ccc1O [Zingerone]
- 'Hotness' (as log Scoville Units) ([2]; burning sensation): <4.0 log Scoville Units
- taste versus control [5, 6]: improved taste over the control

Compound: C=C(C)C1CC=C(C)C(OC(C)=O)C1 (centres unmarked) [carvyl acetate]
- % Enhancement (TRPV1 [1]): 12.83%

Compound: C/C=C/C(=O)C1C(C)C=CCC1(C)C (centres unmarked) [delta-damascone]
- % Enhancement (TRPV1 [1]): 28.53%

Compound: C/C=C/c1ccc(OCC)c(O)c1 [vanitrope]
- direct activation of TRPV1 (TRPV1 activator or not) (TRPV1 [4]): not considered to be a TRPV1 activator
- taste versus control ([5]; hours 1-3 for bothersome and hours 1-2 for bad aftertaste): taste improvement

Compound: Farnesene
- Percent Enhancement when combined with 3.5 microMolar VBE (TRPV1 [3]; enhancer level 50 microMolar): 25%
- Percent Enhancement when combined with 3.5 microMolar VBE (TRPV1 [3]; enhancer level 100 microMolar): 100%
- Percent Enhancement when combined with 3.5 microMolar VBE (TRPV1 [3]; enhancer level 200 microMolar): 175%
- Percent Enhancement when combined with 3.5 microMolar VBE (TRPV1 [3]; enhancer level 1000 microMolar): 400%
- % Enhancement (TRPV1 [1]): 12.33%
